Literature values as cited in US20090087484A1, “Formulation and dosage form for increasing oral bioavailability of hydrophilic macromolecules” (priority 2007, published 2009).
Like-named read-outs stand apart in the source and are kept apart here.

Key:
[1] = in vivo

| oral bioavailability [1] | elimination half-life in urine (after oral administration) [h] | oral bioavailability (in humans) | elimination half-life (mean value, following IV injection) [h] | Molecule |
| --- | --- | --- | --- | --- |
| about 0.15% |  |  |  | NC(=O)CC[C@@H]1NC(=O)[C@H](Cc2ccccc2)NC(=O)[C@H](Cc2ccc(O)cc2)NC(=O)CCSSC[C@@H](C(=O)N2CCC[C@H]2C(=O)N[C@H](CCCN=C(N)N)C(=O)NCC(N)=O)NC(=O)[C@H](CC(N)=O)NC1=O [dDAVP, Desmopressin] |
|  | 4.8 | approximately 3% | 24 | pentosan polysulfate sodium [PPS] |
